Literature values, collected in patent US20130108599A1, “Herbal Vaginal Compositions” (priority 2011, published 2013).

Tests used:
[1] = test system: Candida albicans (KCTC 7270)
[2] = test system: vaginal pathogens

Cn1c(=O)c2c(ncn2C)n(C)c1=O [caffeine]
growth of C. albicans [1]: strongly inhibited

O=C(O[C@@H]1Cc2c(O)cc(O)cc2O[C@@H]1c1cc(O)c(O)c(O)c1)c1cc(O)c(O)c(O)c1 [epigallocatechin gallate]
anti-microbial activity among the catechins [2]: strongest anti-microbial activity
